According to patent publication US20230117286A1, “PHARMACEUTICAL COMPOSITION FOR PREVENTION OR TREATMENT OF NONALCOHOLIC STEATOHEPATITIS” (DONG-A ST CO., LTD., priority 2020, published 2023):

Legend:
[1] = system: mouse model with induced nonalcoholic steatohepatitis; assay: Relative proportion of lipid droplets in liver tissues (image analysis of HE-stained tissue), NASH mice; assay type: in vivo, C57BL/6J mouse; conditions: for ratio of fat (lipid droplets area) in liver tissues: FIG. 5, elafibranor 30 mg/kg/day; for ratio of fat (lipid droplets area) in liver tissues / relative area of lipid droplets in liver tissues: compound 1 100 mg/kg/day, alone or in combination; for relative area of lipid droplets in liver tissues: evogliptin 200 mg/kg/day
Method: (§1) A six-weeks-old male C57BL/6J mouse was fed with a special feed of high fat, high fructose, and high cholesterol (Research Diet, D09100301) for at least 27 weeks, and thus was induced to develop nonalcoholic steatohepatitis. After that, compound 1 was administered alone or in combination so that a daily dose reached 100 mg/kg/day. As the DPPIV inhibitor, evogliptin at 200 mg/kg/day or sitagliptin at 150 mg/kg/day was administered alone or in combination. As the PPAR agonist, elafibranor was administered alone or in combination so as to reach 30 mg/kg/day. As a method of administration alone or in combination, the above-described compound 1, DPPIV inhibitor, and/or PPAR agonist were prepared as a drug-diet admixture and supplied for 8 to 12 weeks.
For quantitative comparison of fat accumulation in liver tissues, the HE-stained tissues were subjected to an image analysis to calculate a relative proportion of lipid droplets per unit area, thereby evaluating a medicinal efficacy of co-administration.

[2] = system: mouse model with induced nonalcoholic steatohepatitis; assay: Galectin-3 immunostaining in liver tissues, NASH mice; assay type: in vivo, C57BL/6J mouse; conditions: administered alone, compound 1 100 mg/kg/day
Method: as §1
To compare the degree of infiltration of inflammatory cells in liver tissues, an expression level of galectin-3, an indicator of increased expression in activated macrophages, was measured through immunostaining. After that, a ratio of the area stained by the galectin-3 antibody in the unit area was calculated through image analysis so as to evaluate the medicinal efficacy of ameliorating inflammation according to the co-administration.

[3] = system: mouse model with induced nonalcoholic steatohepatitis; assay: NAFLD activity score (HE histology) in mouse model with nonalcoholic steatohepatitis; assay type: in vivo, C57BL/6J mouse; conditions: administered alone, compound 1 100 mg/kg/day, compared to before treatment
Method: as §1
For a histological examination, liver tissues were isolated through biopsy and autopsy from the mouse model with induced nonalcoholic steatohepatitis prepared above before and after drug administration and were fixed in 10% formalin so as to prepare a paraffin block and obtain a 2 μm thick tissue section. After that, hematoxylin and eosin (HE) stain was performed by using an automatic stainer (Autostainer XL, Leica) in order to confirm an infiltration of inflammatory cells. A ratio of lipid droplets deposited in the stained liver tissues, a degree of infiltration of inflammatory cells and a degree of cell necrosis were expressed as NAFLD activity scores (NAS), and the results thereof are shown in FIGS. 2 and 3.

[4] = system: mouse model with induced nonalcoholic steatohepatitis; assay: αSMA immunostaining in liver tissues, NASH mice; assay type: in vivo, C57BL/6J mouse; conditions: administered alone, compound 1 100 mg/kg/day
Method: as §1
To evaluate the effectiveness on fibrosis, an expression of a smooth muscle actin (αSMA) in a liver tissue section was measured through immunostaining so as to compare the ratio of activated stellate cells. After that, a ratio of the area stained by the αSMA antibody in the unit area was calculated through image analysis.

[5] = system: Primary human hepatic stellate cells; assay: Pro-collagen 1a1 expression in TGFβ1-activated primary human hepatic stellate cells; assay type: cell-based; conditions: FIG. 13, TGFβ1 5 ng/ml, 18 hours; for protein expression of pro-collagen 1a1 induced by TGFβ1: each drug treated alone
Method: Primary human hepatic stellate cells (ScienCell, #5300) were stabilized for 24 hours, then cultured in a serum-free medium for 24 hours, and then treated with compound 1 in combination with elafibranor as a PPAR agonist, firsocostat as an ACC inhibitor, or obeticholic acid as a FXR agonist together with 5 ng/ml of recombinant […] (TGFβ1), after which the resulting cells were harvested in 18 hours later and an amount of pro-collagen 1a1 in total cell proteins was quantified with a commercialized ELISKA Kit (R&D Systems, DY6220), while an amount of total cell proteins was quantified and corrected by a BCA method, and the results of calculating a concentration response curve of each drug and a concentration (IC30) showing 30% inhibitory activity are shown in FIG. 13.
When compound 1 was treated in combination with the PPAR agonist or the ACC inhibitor, the CI was calculated to be 0.7 and 0.6, which was smaller than 1, thus confirming a synergistic effect. And the CI was calculated to be 1 when treated in combination with the FXR agonist, thus confirming an additive effect.

[6] = system: mouse model with induced nonalcoholic steatohepatitis; assay: Blood AST and ALT, NASH mice; assay type: in vivo, C57BL/6J mouse; conditions: FIG. 11; compound 1 100 mg/kg/day, evogliptin 200 mg/kg/day, alone or in combination; combination compared to both drugs alone
Method: as §1
The mouse model with induced nonalcoholic steatohepatitis was subjected to autopsy, after which plasma was isolated therefrom, so as to quantify aspartate aminotransferase (AST) and alanine aminotransferase (ALT) by using an automatic blood analyzer (Konelab 20i).

[7] = system: human monocyte cell line (THP-1); assay: Inflammatory cytokine secretion during differentiation of human monocytes into macrophages (PMA, then LPS); assay type: cell-based; conditions: FIG. 12; THP-1, PMA 50 ng/ml 48 hours, LPS 0.5 ng/ml four hours; compound 1 alone
Method: A human monocyte cell line (THP-1, ATCC® TIB-202™) was treated with 50 ng/ml of phorbol 12-myristate 13-acetate (PMA) for 48 hours and differentiated into macrophages, while being treated with compound 1 in combination with elafibranor as a PPAR agonist, firsocostat as an ACC inhibitor, obeticholic acid as a FXR agonist or cenicriviroc as a CCR2/5 dual antagonist, then replaced with a serum-free medium, and then treated with lipopolysaccharides (LPS; 0.5 ng/ml) for four hours, after which […], tumor necrosis factor α (TNFα; R&D Systems, DY210), and C—C motif chemokine ligand 2 (CCL2; R&D Systems, DY279), which are inflammatory cytokines secreted into the medium, were quantified with a commercially available ELISKA kit, so as to evaluate an effect on monocyte differentiation, and the results thereof are shown in FIG. 12.

[8] = system: mouse model with induced nonalcoholic steatohepatitis; assay: Plasma inflammation and fibrosis-related proteins (ELISA), NASH mice; assay type: in vivo, C57BL/6J mouse; conditions: FIG. 10
Method: as §1
To evaluate an effect on concentration of inflammation (CCL2, CXCl10, CXCl2, IL2 and TNFα) and fibrosis-related protein (TIMP1) in plasma, a concentration of CCL2, CXCl10, CXCl2, IL2, TNFα (MSD, K15255D-1) and TIMP1 (R&D Systems, MTM100) proteins in the plasma obtained from the mouse model was quantified by using a commercially available ELISA kit.

[9] = FIG. 7, elafibranor 30 mg/kg/day
[10] = FIG. 3, elafibranor 30 mg/kg/day
[11] = FIG. 9, elafibranor 30 mg/kg/day
[12] = FIG. 6, evogliptin 200 mg/kg/day
[13] = FIG. 2, evogliptin 200 mg/kg/day, drug-diet admixture 8 to 12 weeks
[14] = FIG. 8, evogliptin 200 mg/kg/day
[15] = NASH mice, compound 1 alone 100 mg/kg/day
[16] = compound 1 100 mg/kg/day alone or combined with sitagliptin 150 mg/kg/day

Compound | ratio of fat (lipid droplets area) in liver tissues [1] | expression of galectin-3 in liver tissues [2, 9] | NAFLD activity score (NAS) [3, 10] | expression of αSMA in liver tissues [4, 11] | protein expression of pro-collagen 1a1 induced by TGFβ1 [5] | relative area of lipid droplets in liver tissues ([1]; FIG. 4) | plasma concentration of ALT [6] | plasma concentration of AST [6] | expression of galectin-3 in liver tissues [2, 12] | NAFLD activity score (NAS) [3, 13] | expression of αSMA in liver tissues [4, 14] | other results
CSc1ccc(C(=O)/C=C/c2cc(C)c(OC(C)(C)C(=O)O)c(C)c2)cc1 [elafibranor, reference compound] | significantly reduced | no effect of significantly decreasing | significantly improved | no effect of significantly reducing | relatively low response |  |  |  |  |  |  | 
COc1ccccc1[C@H](Cn1c(=O)n(C(C)(C)C(=O)O)c(=O)c2c(C)c(-c3ncco3)sc21)OC1CCOCC1 [firsocostat, reference compound] |  |  |  |  | relatively low response |  |  |  |  |  |  | 
CC(C)(C)OC[C@@H]1C(=O)NCCN1C(=O)C[C@H](N)Cc1cc(F)c(F)cc1F [evogliptin, reference compound] |  |  |  |  |  | tendency of decreasing | significantly reduced | significantly reduced | significantly reduced | insignificant | significantly reduced | 
CCc1cnc(N2CCC(CCCOc3cc(F)c(-c4noc(C(C)C)n4)c(F)c3)CC2)nc1 [compound 1, 3-(4-(3-(1-(5-ethylpyrimidin-2-yl)piperidin-4-yl)propoxy)-2,6-difluorophenyl)-5-isopropyl-1,2,4-oxadiazole] | significantly reduced | significantly decreased | significantly improved | significantly reduced | inhibited in a concentration-dependent manner | significantly reduced | significantly reduced | significantly reduced | significantly reduced | significantly improved | significantly reduced | size of lipid droplets in liver tissues ([1]; FIG. 4, compound 1 alone 100 mg/kg/day): decreased; CCL2 secretion [7]: decreased in a concentration-dependent manner; IL-1β secretion [7]: decreased in a concentration-dependent manner; TNFα secretion [7]: decreased in a concentration-dependent manner; 30% inhibitory concentration (IC30), pro-collagen 1a1 ([5]; treated alone): 0.55 µM; plasma concentration of CCL2 [8, 15]: significantly decreased; plasma concentration of CXCl2 [8, 15]: significantly decreased; plasma concentration of CXCl10 [8, 15]: significantly decreased; plasma IL2 [8, 16]: tendency of decreasing; plasma TNFα [8, 16]: tendency of decreasing; plasma TIMP1 ([8]; compound 1 alone 100 mg/kg/day): significantly decreased
